A short description of series [1]: Mouse pharmacokinetic (PK) study. The class given is in vivo. The note with it: plasma, male BALB/c mice, PO 10 mg/kg vs IV 2 mg/kg, read-out: oral bioavailability (% F). The source says:
The mouse is used to determine the pharmacokinetics of compounds of the invention. This species is widely used to assess the bioavailability of compounds by administering both oral (PO) and intravenous (IV) test articles. Efficacy of the compounds of the invention are compared by assessing plasma exposure in male BALB/c mice either via IV or PO administration at the times of peak activity.
Compounds of the invention are reconstituted in a phosphate buffered saline (PBS)/10% Solutol (HS 15) clear solution resulting in a concentration of 0.2 mg/mL and administered to mice (2 mg/kg) as a single IV dose. Animals dosed via the lateral tail vein. […] The plasma is transferred into labeled polypropylene tubes and frozen at −70° C. until analyzed by LC/MS/MS.
The compounds of the invention are reconstituted in 40% Propylene Glycol/40% Propylene Carbonate/20% of a 5% Sucrose clear solution resulting in a concentration of 2 mg/mL and administered to mice (10 mg/kg) as a single oral dose via gavage. […] The plasma is transferred into labeled polypropylene tubes and frozen at −70° C. until analyzed by LC/MS/MS.
Plasma samples at each timepoint were analyzed using a LC-MS/MS with a lower limit of quantification (LLOQ) of 1 ng/mL. […]
In addition to the above PK parameters, bioavailability (% F) was calculated.

The next series concerns the target T1, GSNOR (Homo sapiens, UniProt P11766).
T1 construct: made in house; host or cells: E. coli
Put plainly: GSNOR assay (inhibition of GSNOR activity in vitro). Particulars: 0.240 mM GSNO, 0.300 mM NADH, pH 7.4, 25° C.; read-out: GSNOR inhibitor IC50. In kind it is biochemical. How it is done: Various compounds were tested in vitro for their ability to inhibit GSNOR activity.
Pre-cultures were grown from stabs of a GSNOR glycerol stock in 2XYT media containing 100 ug/ml ampicillin after an overnight incubation at 37° C. Cells were then added to fresh 2XYT (4 L) containing ampicillin and grown to an OD (A600) of 0.6-0.9 at 37° C. before induction. GSNOR expression was induced with 0.1% arabinose in an overnight incubation at 20° C.
E. coli cell paste was lysed by nitrogen cavitation and the clarified lysate purified by Ni affinity chromatography on an AKTA FPLC (Amersham Pharmacia). The column was eluted in 20 mM Tris pH 8.0/250 mM NaCl with a 0-500 mM imidazole gradient. […] GSNOR was recovered in the flowthrough fraction and for crystallography is further purified by Q-Sepharose and Heparin flowthrough chromatography in 20 mM Tris pH 8.0, 1 mM DTT, 10 uM ZnSO4.
GSNO and Enzyme/NADH Solutions are made up fresh each day. The Solutions are filtered and allowed to warm to room temperature. GSNO Solution: 100 mM NaPO4 (pH 7.4), 0.480 mM GSNO. 396 μL of GSNO Solution is added to a cuvette followed by 8 μL of test compound in DMSO (or DMSO only for full reaction control) and mixed with the pipette tip. Compounds to be tested are made up at a stock concentration of 10 mM in 100% DMSO. 2 fold serial dilutions are done in 100% DMSO. 8 μL of each dilution are added to an assay so that the final concentration of DMSO in the assay is 1%. The concentrations of compounds tested range from 100 to 0.003 μM. Enzyme/NADH Solution: 100 mM NaPO4 (pH 7.4), 0.600 mM NADH, 1.0 μg/mL GSNO Reductase. 396 μL of the Enzyme/NADH Solution is added to the cuvette to start the reaction. The cuvette is placed in the Cary 3E UV/Visible Spectrophotometer and the change in 340 nm absorbance/min at 25° C. is recorded for 3 minutes. The assays are done in triplicate for each compound concentration. IC50's for each compound are calculated using the standard curve analysis in the Enzyme Kinetics Module of SigmaPlot.
Final assay conditions: 100 mM NaPO4, pH 7.4, 0.240 mM GSNO, 0.300 mM NADH, 0.5 μg/mL GSNO Reductase and 1% DMSO. Final volume: 800 μL/cuvette.

T1 sequence (P11766 whole entry): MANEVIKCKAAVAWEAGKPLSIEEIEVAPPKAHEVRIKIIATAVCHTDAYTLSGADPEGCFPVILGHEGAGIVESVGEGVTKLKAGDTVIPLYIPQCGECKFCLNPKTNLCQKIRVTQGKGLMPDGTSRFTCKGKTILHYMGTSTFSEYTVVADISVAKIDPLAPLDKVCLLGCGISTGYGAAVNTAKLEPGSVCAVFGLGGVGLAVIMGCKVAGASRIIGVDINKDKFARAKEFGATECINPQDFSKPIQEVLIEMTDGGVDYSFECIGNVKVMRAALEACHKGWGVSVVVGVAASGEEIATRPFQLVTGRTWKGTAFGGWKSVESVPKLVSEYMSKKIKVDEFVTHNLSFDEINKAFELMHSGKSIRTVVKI

In the case of `O=C1CC(c2ccc(C(=O)O)c(O)c2)C(c2ccccc2)=C(c2ccccc2)N1` (centres unmarked) [Example 6, 2-hydroxy-4-(2-oxo-5,6-diphenyl-1,2,3,4-tetrahydropyridin-4-yl)benzoic acid], in series [1], the bioavailability worked out at 22%. Also, the IC50 on GSNOR was below 0.1 µM.

The bioavailability is the share of a dose that reaches the circulation, judged against a reference dose that is usually intravenous. The IC50 is the concentration needed to halve the response being measured.

Values taken from patent US9283213B2, “Dihydropyridin-2(1H)-one compounds as S-nitrosoglutathione reductase inhibitors and neurokinin-3 receptor antagonists” (N30 Pharmaceuticals, Inc., priority 2010, dated 2016).
